# Measured values published in PubChem BioAssay (NCI).
# “And” between values parts separate entries of the source, which are not always exact repeats. Identical values can stand only once.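 A five-concentration, 48-hour dose response in 96-well plates underlies each endpoint, interpolated linearly between surrounding concentrations. GI50 marks 50% less growth. Definition used: TGI = concentration required for complete inhibition of growth.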 Where a SMILES comes first, the peptide text is derived from it. [ ]: non-standard residue; d: D form. The star is where a group is joined. NMeAc5c = CNC1(C(=O)O)CCCC1; Boc = CC(C)(C)OC(=O)*; OBn = c1ccc(CO*)cc1
# Columns and labels:
# Experiment in all cases: NCI tumour cell line growth inhibition, 48 h
# [1] = test system: SW-620 colon
# [2] = test system: NCI-H23 lung
# [3] = test system: HCC-2998 colon
# [4] = test system: SK-MEL-5 melanoma
# [5] = test system: IGROV1 ovarian
# [6] = test system: PC-3 prostate
# [7] = test system: SF-268 CNS
# [8] = test system: A498 renal
# [9] = test system: UACC-62 melanoma
# [10] = test system: COLO 205 colon
# [11] = test system: HL-60(TB) leukemia
SMILES,TGI [1] [µM],TGI [2] [µM],TGI [3] [µM],TGI [4] [µM],TGI [5] [µM],TGI [6] [µM],TGI [7] [µM],TGI [8] [µM],TGI [9] [µM],TGI [10] [µM],TGI [11],GI50 [11] [nM],GI50 [1] [nM],GI50 [10] [nM],GI50 [7] [µM],GI50 [9] [µM],GI50 [3] [nM],GI50 [6] [nM],GI50 [4] [nM]
Nc1nc(SCCc2ccccc2)c2[nH]cnc2n1,> 100,> 100,93.8,> 100,> 100,> 100,> 100,61,> 100,–,–,–,–,–,–,–,–,–,–
Cc1n[nH]c(=O)n1/N=C/c1ccc(Cl)cc1,> 100,> 100,> 100,–,–,–,> 100,> 100,> 100,> 100,–,–,–,–,–,–,–,–,–
Cc1ccc(-c2n[nH]c(=O)n2N2C(=O)c3ccccc3C2=O)cc1,> 100,> 100,> 100,> 100,> 100,> 100,> 100,–,> 100,–,> 100 µM,–,–,–,–,–,–,–,–
COc1cc2c(c(OC)c1OC)C(=O)[C@@H]1[C@H]2N1C(N)=O,> 100,> 100,> 100,> 100,> 100,> 100,> 100,–,68.2,> 100,> 100 µM,–,–,–,–,–,–,–,–
Cc1ccc(N=NC(=Nc2ccccc2)c2ccc(N(CCC#N)CCC#N)cc2)cc1,> 100,43.9,48.6,47,57.1,59.9,> 100,> 100,58.9,> 100,–,–,–,–,–,–,–,–,–
CCCCC#C[I+]c1ccccc1,–,27.3,34.4,31.1,36.4,–,39.7,48.2,33,28.7,40.1 µM,–,–,–,–,–,–,–,–
C=C(C)C(=O)OC1C/C(CO)=C\C(O)C/C(C)=C/C2OC(=O)C(=C)C21 (stereo not given),33.3,–,–,44.1,> 100,–,57.8,–,39.1,38.3,–,–,–,–,–,–,–,–,–
O=C(CCN1CCCCC1)C(=Cc1ccccc1)C(=O)CCN1CCCCC1,–,> 100,> 100,> 100,> 100,–,> 100,> 100,> 100,> 76.4,6.05 µM and 48 µM,2200,1760,2620,5.88,8.82,–,–,–
Cc1c(O)c(O)cc[n+]1C1OC(CO)C(O)C1O (stereo not given),> 100,> 100,> 100,–,> 100,–,> 100,> 100,> 100,> 100,–,–,–,–,–,–,–,–,–
O=c1c2cc([N+](=O)[O-])cnc2sn1-c1ccc([N+](=O)[O-])cc1,> 100,> 100,> 100,> 100,> 100,83.8,67.6,–,> 100,37.3,64.2 µM,–,–,–,–,–,–,–,–
NC(N)=N/N=C/c1c(-c2ccc(N)cc2)nc2sccn12,68.2,95.2,–,> 100,> 100,58.7,> 100,68.2,> 100,57.8,47.9 µM,–,–,–,–,–,–,–,–
C=CC1(C)CCC2C(=CCC3C2(C)CC(O)C(O)C3(C)COC2OC(C(=O)O)C(O)C(O)C2O)C1 (stereo not given) (tested in a mixture with another compound),> 100,> 100,> 100,> 100,> 100,> 100,> 100,> 100,> 100,> 100,–,–,–,–,–,–,–,–,–
O=c1ccc(-c2ccccc2)n[nH]1,> 100,> 100,> 100,> 100,> 100,> 100,> 100,> 100,> 100,–,> 100 µM,–,–,–,–,–,–,–,–
COc1cc(Br)cc2cc(-c3cn4ccsc4n3)c(=O)oc12,> 100,> 100,24,49.9,> 100,> 100,> 100,–,75.9,> 100,> 100 µM,–,–,–,–,–,–,–,–
Clc1ccccc1C(SCc1ccccc1)SCc1ccccc1,> 100,> 100,> 100,> 100,> 100,> 100,> 100,–,> 100,> 100,> 100 µM,–,–,–,–,–,–,–,–
CCOC(=O)/C=C/CC(C)(C)CCOC(C)=O,> 10,> 10,> 10,> 10,> 10,> 10,> 10,–,> 10,> 10,> 10 µM,–,–,–,–,–,–,–,–
O=C1c2ccccc2-c2c1c1ccccc1c(=O)n2CCNCCNCCNCCn1c2c(c3ccccc3c1=O)C(=O)c1ccccc1-2,> 100,–,6.11,–,–,1.33,–,–,1.54,> 20.3,–,1800,194,1760,–,0.379,591,373,–
COc1ccc(C2CC(c3c(O)ccc4ccccc34)=NN2C(C)=O)cc1OC (stereo not given),> 100,79,54.3,71.8,> 100,> 100,> 100,63.4,29.7,42.8,–,–,–,–,–,–,–,–,–
N#Cc1c(-c2ccccc2)/c(=C\Nc2cccc(C(F)(F)F)c2)c(=O)n2c1nc1ccccc12,> 100,> 100,> 100,> 100,> 100,> 100,> 100,> 100,–,> 100,–,–,–,–,–,–,–,–,–
COc1cc2nc3n(c(=O)c2cc1OC)-c1ccc([N+](=O)[O-])cc1C3=O,62.2,> 100,> 100,> 100,> 100,> 100,> 100,78.6,> 100,> 100,–,–,–,–,–,–,–,–,–
CN(C(=O)C(Cc1ccccc1)NC(=O)OC(C)(C)C)C1(C(=O)NC(Cc2ccccc2)C(=O)OCc2ccccc2)CCCC1 (stereo not drawn) (Boc-Phe-[NMeAc5c]-Phe-OBn; configuration not given here),> 100,> 100,> 100,> 100,> 100,> 100,> 100,–,71.2,52.3,47.5 µM,–,–,–,–,–,–,–,–
CCOC(=O)c1cn2c(n1)sc1cccc(C)c12,–,> 100,> 100,> 100,> 100,> 100,> 100,–,> 100,> 100,–,–,–,–,–,–,–,–,–

SMILES,TGI [1] [µM],TGI [2] [µM],TGI [3] [µM],TGI [4] [µM],TGI [5] [µM],TGI [6] [µM],TGI [7] [µM],TGI [8] [µM],TGI [9] [µM],TGI [10] [µM],TGI [11],GI50 [11] [nM],GI50 [1] [nM],GI50 [10] [nM],GI50 [7] [µM],GI50 [9] [µM],GI50 [3] [nM],GI50 [6] [nM],GI50 [4] [nM]
c1csc(-c2ccc(-c3cccc4nsnc34)s2)c1,> 100,> 100,> 100,> 100,–,> 100,> 100,> 100,> 100,> 100,–,–,–,–,–,–,–,–,–
O=C1/C(=C\c2ccccc2)C(NC2CCCCC2)c2ccccc21 (stereo not given),2.12,2.28,–,6.65,10.4,3.78,13,32.7,6.2,3.22,3.02 µM,–,–,–,–,–,–,–,–
O=C(N/N=C(/COc1ccc(Cl)cc1)N=Cc1ccncc1)c1ccncc1,> 100,> 100,> 100,–,> 100,> 100,> 100,> 100,> 100,> 100,> 100 µM,–,–,–,–,–,–,–,–
C1CN(c2nc3c(nnc4nc(N5CCOCC5)sc43)s2)CCO1,> 100,> 100,–,> 100,> 100,> 100,> 100,> 100,> 100,> 100,> 100 µM,–,–,–,–,–,–,–,–
Cc1ccc(C(=O)O)cc1S(=O)(=O)Nn1cnc2ccc(S(=O)(=O)Nc3ccccc3C(=O)O)cc2c1=O,> 100,> 100,> 100,–,> 100,> 100,> 100,–,> 100,> 100,> 100 µM,–,–,–,–,–,–,–,–
C[C@]12CCC(O)CC1=CC[C@@H]1[C@@H]2CC[C@]2(C)C(=O)[C@H](n3ccnc3)C[C@@H]12 (stereo not given in full),> 100,> 100,–,45.2,> 100,> 100,> 100,> 100,> 100,71,40.7 µM,–,–,–,–,–,–,–,–
COCO[C@@H]1C[C@H]2C(=O)Nc3ccccc3C(=O)N2C1,> 100,> 100,–,> 100,> 100,> 100,> 100,> 100,> 100,> 100,–,–,–,–,–,–,–,–,–
Nc1nc(Cl)cc(NCC2(CO)CC(=O)C2)n1,> 100,> 100,> 100,> 100,> 100,> 100,> 100,–,> 100,> 100,> 100 µM,–,–,–,–,–,–,–,–
COC(=O)c1cc(=O)nc2sc3cccc(C)c3n12,> 100,> 100,–,> 100,> 100,> 100,> 100,–,> 100,29.8,62.6 µM,–,–,–,–,–,–,–,–
O=C1CSC(c2ccc(Cl)cc2)N1c1ccc(Oc2ccc(Cl)cc2)c(Cl)c1 (stereo not given),45,31.4,33.4,32.4,31.2,31.3,24,–,28.8,34.3,39 µM,–,–,–,–,–,–,–,–
CC(C)CCS(=O)(=O)OCCCCOS(=O)(=O)CCC(C)C,> 100,> 100,> 100,–,> 100,–,> 100,–,> 100,> 100,> 100 µM,–,–,–,–,–,–,–,–
CC1CCC(n2c3cnccc3c3cnc(Nc4ccc5c(n4)CCN(C(=O)CO)C5)nc32)CC1 (stereo not given),> 100,–,–,> 100,–,–,–,–,–,–,–,–,278,–,–,–,–,–,792
c1ccc(-c2nc(-c3ccccc3SSc3ccccc3-c3nc(-c4ccccc4)nn3-c3ccccc3)n(-c3ccccc3)n2)cc1,> 100,> 100,> 100,–,> 100,> 100,> 100,> 100,> 100,> 100,> 100 µM,–,–,–,–,–,–,–,–
S=C1Nc2ccccc2SC1c1ccccc1 (stereo not given),–,> 100,–,> 100,> 100,> 100,> 100,–,> 100,> 100,> 100 µM,–,–,–,–,–,–,–,–
[N-]=[N+]=NC[C@H]1OCO[C@H](CN=[N+]=[N-])[C@@H](OCCOCCCl)[C@@H]1OCCOCCCl,> 100,> 100,> 100,> 100,> 100,> 100,> 100,–,> 100,> 100,> 100 µM,–,–,–,–,–,–,–,–
ClCCN1CCC2(CC1)SSC1(CCN(CCCl)CC1)S2,> 100,> 100,–,> 100,> 100,> 100,30.9,> 100,71,41.2,76.8 µM,–,–,–,–,–,–,–,–
C[C@@H](NC(=O)[C@@H]1C[C@]1(C)COC(=O)c1cc([N+](=O)[O-])cc([N+](=O)[O-])c1)c1cccc2ccccc12,> 100,> 100,> 100,> 100,> 100,> 100,> 100,> 100,> 100,> 100,–,–,–,–,–,–,–,–,–
COC(CCC[N+](C)(C)C)CC[N+](C)(C)C (stereo not given),> 100,> 100,> 100,> 100,> 100,> 100,> 100,–,> 100,> 100,> 100 µM,–,–,–,–,–,–,–,–
Cc1cn2c(/C=N/N=C(N)N)c(-c3cccc([N+](=O)[O-])c3)nc2s1,2.7,5.11,2.83,3.13,19.7,4.08,2.58,–,3.07,–,3.86 µM,–,–,–,–,–,–,–,–
Cc1cc(Cc2cc(C)c(N)cc2N)c(N)cc1N,> 100,> 100,–,> 100,> 100,> 100,> 100,> 100,> 100,> 100,> 100 µM,–,–,–,–,–,–,–,–
COc1cc(C(=O)N(C(=S)OCc2ccccn2)c2ccccc2)cc(OC)c1OC,> 100,> 100,–,> 100,79.6,> 100,> 100,> 100,> 100,> 100,> 100 µM,–,–,–,–,–,–,–,–
